Structures can show the parent of a compound that is named as a salt.
Tested on: isolated guinea pig ileum (histamine spasm)
Assay: histamine spasm test in isolated guinea pig ileum (Magnus), % inhibition of histamine spasm
Design: antihistaminic activity (mean value), starting value / increase of antihistaminic activity (mean value): concentration or dose not given beside the values
Description: These trials were conducted in association with the histamine spasm test in isolated guinea pig ileum. Here, for example, the azelastine dosage (hydrochloride) is maintained constant and the dosage of theophylline or β-mimetic (for example reproterol) is changed and in each case intestinal spasm inhibition is determined as a % of uninhibited histamine spasm (Method of determining synergism according to Magnus).
Guinea pigs of both sexes having a mean weight of 400-600 g are stunned by a blow on the neck and exsanguinated. The lower part of the small intestine above the bottom 10 cm before the transition to the large intestine is dissected, flushed with cold Tyrode's solution and incubated in a refrigerator for 1 hour. 3-4 cm long sections are then cut and suspended in the immersion baths (Tyrode's solution^1) 37° C., carbogen gassing^2) under isotonic conditions, a tension of 2 g being applied. Following an adjustment time of 30 minutes the contraction in response to a standard spasmogen concentration of histamine (2×10^-7 mol/liter) is determined. […] The effects of the individual components and their combination are compared with one another.
1 Tyrode's solution: standardized, glucose-containing nutrient solution that has the same osmotic pressure as blood
2 Carbogen: gaseous mixture of 95% oxygen and 5% carbon dioxide.

With `Cn1c(=O)c2c(ncn2CCCNCC(O)c2cc(O)cc(O)c2)n(C)c1=O` (stereo not drawn) [reproterol, 7-{3[(β,3,5-trihydroxyphenethyl)-amino]propyl}-theophylline] the “antihistaminic activity (mean value), starting value” (reproterol, mean value before addition of azelastine) was 26% and the “increase of antihistaminic activity (mean value)” value (“increase” below) (reproterol, on addition of azelastine) was 38%.

`CN1CCCC(n2nc(Cc3ccc(Cl)cc3)c3ccccc3c2=O)CC1` (centres unmarked) [azelastine] was tested, and the “increase” value (azelastine activity increased in the combination, partner not given) was 26% and the “antihistaminic activity (mean value), starting value” (azelastine, mean value before increase) was 36%.

For `Cn1c(=O)c2c(ncn2CCCNCC(O)c2cc(O)cc(O)c2)n(C)c1=O` (centres unmarked) [Reproterol.HCl], the “% inhibition (histamine 2 × 10^-10 mol/ml)” value (“% inhibition” below) (Table 2, Reproterol.HCl 0.02 μg/ml alone, group *, N = 8) was 14.5 ± 16.6%, the “% inhibition” value (Table 2, Reproterol.HCl 0.04 μg/ml alone, group **, N = 8) was 14.5 ± 18.1% and the “% inhibition” value (Table 2, Reproterol.HCl 0.06 μg/ml alone, group ***, N = 8) was 48.5 ± 21.3%.

In the case of `CN1CCCC(n2nc(Cc3ccc(Cl)cc3)c3ccccc3c2=O)CC1` (centres unmarked) [Azelastine.HCl], the “% inhibition” value (Table 1, Azelastine.HCl 0.001 μg/ml alone, group ****, N = 8) is reported as 46.3 ± 34.6%, the “% inhibition” value (Table 1, Azelastine.HCl 0.001 μg/ml alone, group ***, N = 8) is reported as 9.4 ± 12.4% and the “% inhibition” value (Table 1, Azelastine.HCl 0.001 μg/ml alone, group **, N = 4) is reported as 49.3 ± 1.9%. The “% inhibition” value (Table 1, Azelastine.HCl 0.001 μg/ml alone, group *, N = 8) was 38.9 ± 19.9%, the “% inhibition” value (Table 2, Azelastine.HCl 0.001 μg/ml alone, group ***, N = 8) was 45.9 ± 21.1% and the “% inhibition” value (Table 2, Azelastine.HCl 0.001 μg/ml alone, group **, N = 8) was 26.6 ± 15.1%. The “% inhibition” value (Table 2, Azelastine.HCl 0.001 μg/ml alone, group *, N = 8) was 35.1 ± 25.7%.

`Cn1c(=O)c2[nH]cnc2n(C)c1=O` [Theophylline] was tested, and the “% inhibition” value (Table 1, Theophylline 10 μg/ml alone, group *, N = 8) was 9.0 ± 12.8%, the “% inhibition” value (Table 1, Theophylline 20 μg/ml alone, group **, N = 4) was 25.0 ± 15.1% and the “% inhibition” value (Table 1, Theophylline 40 μg/ml alone, group ***, N = 8) was 39.6 ± 26.9%. The “% inhibition” value (Table 1, Theophylline 60 μg/ml alone, group ****, N = 8) was 20.6 ± 15.5%, the “antihistaminic activity (mean value), starting value” (theophylline, mean value before addition of azelastine) was 24% and the “increase” value (theophylline, upon addition of azelastine) was 38%.

Reference: patent US5068233A, “Synergistic combination of azelastine and theophylline or azelastine and α-mimetics” (Asta Pharma Aktiengesellschaft, priority 1987, dated 1991)
